The target in one assay is T1, CDK6/cyclinD3 (Homo sapiens, UniProt Q00534).
T1 construct: purchased Millipore (KinaseProfiler service)
The assay is described as follows: In vitro kinase activity (Millipore KinaseProfiler): CDK6/cyclinD3. Particulars: no head or unit printed. In kind it is biochemical. Here is the method:
(§1) All cells were grown in DMEM+10% FCS. ACHN and ACHN shVHL were a kind gift from George V. Thomas (UCLA). HIF overexpressing clones were described previously. Transfection of RNA oligos were performed with DnarmaFECT Reagent 1 (Dharmcon), according to manufacturer's directions. ON-TARGETplus SMART pools against HIF-1β/ARNT were purchased from Dharmacon. Glut1 was detected with anti-GLUT1 antibody from NeoMarkers/LabVision/Fisher. Pyruvate/lactate levels and hexokinase activity were both measured by fluorometric assay (BioVision and Sigma-Aldrich, respectively). ATP levels were measured by bioluminescence assay (ATP Determination Kit from Molecular Probes/Invitrogen). In vitro kinase activities were performed by Millipore KinaseProfiler. Affi-Gel 10 (BioRad) activated affinity media was coupled to analogs to generate immobilized affinity linkers.
(§2) We next wanted to investigate the differential glucose uptake between RCCs with and without VHL treated with compound 47 that subsequently lead to the selective death of VHL-deficient cells. We first examined the message levels of the two main glucose transporters, GLUT1 and GLUT2 by quantitative real-time PCR. GLUT1 is an inducible, high-affinity glucose transporter, while GLUT2 is the glucose transporter responsible for basal glucose uptake. […] Cells deficient in VHL had very low levels of GLUT2 that could barely be detected (FIG. 3J). […]

A further assay concerns the target T2, Fyn (Homo sapiens, UniProt P06241).
T2 construct: purchased Millipore (KinaseProfiler service)
Nature of the assay: In vitro kinase activity (Millipore KinaseProfiler): Fyn. Type of assay: biochemical. The note with it: no head or unit printed. The protocol: as §1, §2

Another assay concerns the target T3, Pim-2 (Homo sapiens, UniProt Q9P1W9).
T3 construct: purchased Millipore (KinaseProfiler service)
The assay is described as follows: In vitro kinase activity (Millipore KinaseProfiler): Pim-2. In kind it is biochemical. Particulars: no head or unit printed. The protocol:
as §1, §2

A further assay deals with T4, PKA (Homo sapiens, UniProt P17612).
T4 construct: purchased Millipore (KinaseProfiler service)
The assay is described as follows: In vitro kinase activity (Millipore KinaseProfiler): PKA. Particulars: no head or unit printed. In kind it is biochemical. The protocol:
as §1, §2

For another assay, the target named is T5, MEK1 (Homo sapiens, UniProt Q02750).
T5 construct: purchased Millipore (KinaseProfiler service)
T5 sequence (Q02750 whole entry, species assumed): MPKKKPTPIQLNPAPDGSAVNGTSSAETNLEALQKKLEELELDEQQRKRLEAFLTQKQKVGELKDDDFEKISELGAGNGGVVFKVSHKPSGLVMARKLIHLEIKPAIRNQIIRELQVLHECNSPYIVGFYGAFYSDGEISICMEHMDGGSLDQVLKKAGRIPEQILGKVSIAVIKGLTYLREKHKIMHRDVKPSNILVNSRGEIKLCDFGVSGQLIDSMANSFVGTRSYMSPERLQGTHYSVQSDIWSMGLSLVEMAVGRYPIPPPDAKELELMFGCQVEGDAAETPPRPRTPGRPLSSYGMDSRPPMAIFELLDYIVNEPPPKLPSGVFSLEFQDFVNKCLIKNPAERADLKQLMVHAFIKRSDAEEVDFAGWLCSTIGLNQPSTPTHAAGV
Nature of the assay: In vitro kinase activity (Millipore KinaseProfiler): MEK1. Particulars: no head or unit printed. Type of assay: biochemical. Here is the method: as §1, §2

For another assay, the target named is T6, CK1γ1 (Homo sapiens, UniProt Q9HCP0).
T6 construct: purchased Millipore (KinaseProfiler service)
Nature of the assay: In vitro kinase activity (Millipore KinaseProfiler): CK1γ1. The note with it: no head or unit printed. Type of assay: biochemical. The protocol:
as §1, §2

The target of another assay is T7, cSRC (Homo sapiens, UniProt P12931).
T7 construct: purchased Millipore (KinaseProfiler service)
T7 sequence (P12931 whole entry, species assumed): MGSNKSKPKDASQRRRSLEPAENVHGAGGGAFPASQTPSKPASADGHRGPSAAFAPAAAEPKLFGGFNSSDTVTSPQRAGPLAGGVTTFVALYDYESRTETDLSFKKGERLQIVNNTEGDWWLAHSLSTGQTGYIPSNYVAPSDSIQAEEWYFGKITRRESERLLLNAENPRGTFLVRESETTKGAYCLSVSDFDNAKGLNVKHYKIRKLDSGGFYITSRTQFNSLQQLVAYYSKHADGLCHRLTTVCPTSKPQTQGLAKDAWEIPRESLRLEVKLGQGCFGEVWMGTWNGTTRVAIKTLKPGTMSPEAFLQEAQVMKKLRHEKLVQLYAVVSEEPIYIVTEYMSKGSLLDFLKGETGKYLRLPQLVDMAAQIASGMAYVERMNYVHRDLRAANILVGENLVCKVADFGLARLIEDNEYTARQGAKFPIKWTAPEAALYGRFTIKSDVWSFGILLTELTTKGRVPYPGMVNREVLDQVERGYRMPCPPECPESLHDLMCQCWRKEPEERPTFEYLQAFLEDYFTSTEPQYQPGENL
Nature of the assay: In vitro kinase activity (Millipore KinaseProfiler): cSRC. Type of assay: biochemical. Particulars: no head or unit printed. The protocol:
as §1, §2

The next assay addresses T8, MAPKAP-K2 (Homo sapiens, UniProt P49137).
T8 construct: purchased Millipore (KinaseProfiler service)
The assay is described as follows: In vitro kinase activity (Millipore KinaseProfiler): MAPKAP-K2. In kind it is biochemical. Particulars: no head or unit printed. Here is the method: as §1, §2

The target of the next assay is T9, FGFR1 (Homo sapiens, UniProt P11362).
T9 construct: purchased Millipore (KinaseProfiler service)
T9 sequence (P11362 22-822, species assumed): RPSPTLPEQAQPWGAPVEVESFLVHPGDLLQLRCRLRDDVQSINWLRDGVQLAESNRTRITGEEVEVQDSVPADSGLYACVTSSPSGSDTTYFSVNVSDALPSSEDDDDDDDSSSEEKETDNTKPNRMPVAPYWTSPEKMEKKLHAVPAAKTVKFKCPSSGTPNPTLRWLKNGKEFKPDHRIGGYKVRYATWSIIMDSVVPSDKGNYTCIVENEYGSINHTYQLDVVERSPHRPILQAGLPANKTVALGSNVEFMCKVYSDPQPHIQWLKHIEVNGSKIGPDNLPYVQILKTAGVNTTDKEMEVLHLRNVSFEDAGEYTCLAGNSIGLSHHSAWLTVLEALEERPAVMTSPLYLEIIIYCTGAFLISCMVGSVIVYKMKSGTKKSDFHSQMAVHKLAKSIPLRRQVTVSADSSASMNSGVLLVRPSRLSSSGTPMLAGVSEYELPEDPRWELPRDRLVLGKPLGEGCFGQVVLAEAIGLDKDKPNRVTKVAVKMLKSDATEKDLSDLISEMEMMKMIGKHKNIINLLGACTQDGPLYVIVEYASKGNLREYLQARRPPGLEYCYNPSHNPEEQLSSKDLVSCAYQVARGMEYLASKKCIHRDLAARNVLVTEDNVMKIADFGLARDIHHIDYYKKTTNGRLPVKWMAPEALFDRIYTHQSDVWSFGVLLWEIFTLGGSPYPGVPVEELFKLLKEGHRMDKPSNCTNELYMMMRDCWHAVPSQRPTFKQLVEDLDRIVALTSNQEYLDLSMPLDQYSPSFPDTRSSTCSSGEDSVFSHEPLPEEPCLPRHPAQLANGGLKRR
Nature of the assay: In vitro kinase activity (Millipore KinaseProfiler): FGFR1. Type of assay: biochemical. Particulars: no head or unit printed. The protocol:
as §1, §2

The target in the next assay is T10, Aurora-A (Homo sapiens, UniProt O14965).
T10 construct: purchased Millipore (KinaseProfiler service)
T10 sequence (O14965 whole entry): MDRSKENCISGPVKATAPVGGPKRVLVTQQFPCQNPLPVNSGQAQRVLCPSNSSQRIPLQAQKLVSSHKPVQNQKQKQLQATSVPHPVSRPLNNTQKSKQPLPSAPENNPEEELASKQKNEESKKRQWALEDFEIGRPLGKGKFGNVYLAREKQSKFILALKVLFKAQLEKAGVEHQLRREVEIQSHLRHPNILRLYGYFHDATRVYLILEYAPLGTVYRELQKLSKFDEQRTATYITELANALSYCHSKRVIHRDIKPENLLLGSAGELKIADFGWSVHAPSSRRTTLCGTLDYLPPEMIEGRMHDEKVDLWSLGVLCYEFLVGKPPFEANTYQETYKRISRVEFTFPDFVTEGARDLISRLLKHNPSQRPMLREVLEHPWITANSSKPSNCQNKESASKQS
The assay is described as follows: In vitro kinase activity (Millipore KinaseProfiler): Aurora-A. Type of assay: biochemical. The note with it: no head or unit printed. Here is the method: as §1, §2

In the next assay the test system is RCC4 and RCC4/VHL cells. The assay is described as follows: Oxygen consumption (Oxytherm electrode). Particulars: 5 μM, FIG. 3F. Type of assay: cell-based, human. The protocol: Following treatment with vehicle or drug, cells were trypsinized, suspended at 5 million cells per ml in DMEM+10% FCS, and oxygen consumption was measured in 0.5 ml volume using an Oxytherm electrode unit (Hansatech).

In another assay the target is T11, Met (Homo sapiens, UniProt P08581).
T11 construct: purchased Millipore (KinaseProfiler service)
The assay is described as follows: In vitro kinase activity (Millipore KinaseProfiler): Met. Type of assay: biochemical. The note with it: no head or unit printed. Here is the method:
as §1, §2

Another assay addresses T12, ROCK-I (Homo sapiens, UniProt Q13464).
T12 construct: purchased Millipore (KinaseProfiler service)
The assay is described as follows: In vitro kinase activity (Millipore KinaseProfiler): ROCK-I. In kind it is biochemical. The note with it: no head or unit printed. Here is the method: as §1, §2

The target in the next assay is T13, Syk (Homo sapiens, UniProt P43405).
T13 construct: purchased Millipore (KinaseProfiler service)
Nature of the assay: In vitro kinase activity (Millipore KinaseProfiler): Syk. Type of assay: biochemical. The note with it: no head or unit printed. Here is the method: as §1, §2

In a further assay the target is T14, CDK1/cyclinB (Homo sapiens, UniProt P06493).
T14 construct: purchased Millipore (KinaseProfiler service)
Nature of the assay: In vitro kinase activity (Millipore KinaseProfiler): CDK1/cyclinB. In kind it is biochemical. The note with it: no head or unit printed. Here is the method:
as §1, §2

The target in another assay is T15, CSK (Homo sapiens, UniProt P41240).
T15 construct: purchased Millipore (KinaseProfiler service)
T15 sequence (P41240 whole entry, species assumed): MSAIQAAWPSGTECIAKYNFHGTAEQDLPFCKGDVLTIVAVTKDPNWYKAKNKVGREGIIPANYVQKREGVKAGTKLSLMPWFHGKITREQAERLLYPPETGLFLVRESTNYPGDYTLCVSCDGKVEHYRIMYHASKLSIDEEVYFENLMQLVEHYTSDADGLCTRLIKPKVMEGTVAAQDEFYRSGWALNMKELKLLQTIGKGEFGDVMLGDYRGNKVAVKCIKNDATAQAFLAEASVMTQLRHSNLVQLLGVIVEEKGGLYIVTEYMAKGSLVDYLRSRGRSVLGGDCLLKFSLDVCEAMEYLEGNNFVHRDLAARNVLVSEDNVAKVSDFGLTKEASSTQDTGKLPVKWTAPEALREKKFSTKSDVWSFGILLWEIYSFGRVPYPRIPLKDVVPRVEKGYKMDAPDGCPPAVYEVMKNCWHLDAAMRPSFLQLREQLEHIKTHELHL
The assay is described as follows: In vitro kinase activity (Millipore KinaseProfiler): CSK. Type of assay: biochemical. The note with it: no head or unit printed. Here is the method: as §1, §2

The next assay has as its system PI3K. Nature of the assay: In vitro kinase activity (Millipore KinaseProfiler): PI3K. The note with it: no head or unit printed. Type of assay: biochemical. The protocol:
as §1, §2

The next assay addresses T16, ASK1 (Homo sapiens, UniProt Q99683).
T16 construct: purchased Millipore (KinaseProfiler service)
The assay is described as follows: In vitro kinase activity (Millipore KinaseProfiler): ASK1. Type of assay: biochemical. The note with it: no head or unit printed. Here is the method: as §1, §2

The next assay deals with T17, Rsk1 (Homo sapiens, UniProt Q15418).
T17 construct: purchased Millipore (KinaseProfiler service)
The assay is described as follows: In vitro kinase activity (Millipore KinaseProfiler): Rsk1. In kind it is biochemical. Particulars: no head or unit printed. Here is the method:
as §1, §2

Another assay concerns the target T18, DAPK1 (Homo sapiens, UniProt P53355).
T18 construct: purchased Millipore (KinaseProfiler service)
The assay is described as follows: In vitro kinase activity (Millipore KinaseProfiler): DAPK1. The note with it: no head or unit printed. Type of assay: biochemical. Here is the method:
as §1, §2

For another assay, the target named is T19, IRAK1 (Homo sapiens, UniProt P51617).
T19 construct: purchased Millipore (KinaseProfiler service)
The assay is described as follows: In vitro kinase activity (Millipore KinaseProfiler): IRAK1. In kind it is biochemical. Particulars: no head or unit printed. Here is the method:
as §1, §2

T1 sequence (Q00534 whole entry, species assumed): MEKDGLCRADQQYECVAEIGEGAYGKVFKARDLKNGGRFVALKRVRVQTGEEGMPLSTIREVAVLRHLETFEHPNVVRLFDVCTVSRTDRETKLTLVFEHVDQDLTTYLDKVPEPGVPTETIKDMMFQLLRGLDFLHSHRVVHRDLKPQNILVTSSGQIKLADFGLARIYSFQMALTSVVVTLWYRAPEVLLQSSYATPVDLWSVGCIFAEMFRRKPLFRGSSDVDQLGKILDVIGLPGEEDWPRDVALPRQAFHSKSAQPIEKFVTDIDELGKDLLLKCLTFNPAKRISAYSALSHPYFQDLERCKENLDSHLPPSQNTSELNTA
T1 sequence (P30281 whole entry partner, species assumed): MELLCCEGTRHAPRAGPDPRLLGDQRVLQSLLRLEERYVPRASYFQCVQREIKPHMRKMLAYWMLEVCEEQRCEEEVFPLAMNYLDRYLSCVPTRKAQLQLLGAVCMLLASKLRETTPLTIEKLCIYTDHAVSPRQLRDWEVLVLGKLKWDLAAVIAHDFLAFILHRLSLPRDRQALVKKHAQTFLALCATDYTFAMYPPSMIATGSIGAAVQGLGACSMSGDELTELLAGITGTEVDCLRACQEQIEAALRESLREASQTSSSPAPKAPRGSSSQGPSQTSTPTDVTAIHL
T12 sequence (Q13464 whole entry, species assumed): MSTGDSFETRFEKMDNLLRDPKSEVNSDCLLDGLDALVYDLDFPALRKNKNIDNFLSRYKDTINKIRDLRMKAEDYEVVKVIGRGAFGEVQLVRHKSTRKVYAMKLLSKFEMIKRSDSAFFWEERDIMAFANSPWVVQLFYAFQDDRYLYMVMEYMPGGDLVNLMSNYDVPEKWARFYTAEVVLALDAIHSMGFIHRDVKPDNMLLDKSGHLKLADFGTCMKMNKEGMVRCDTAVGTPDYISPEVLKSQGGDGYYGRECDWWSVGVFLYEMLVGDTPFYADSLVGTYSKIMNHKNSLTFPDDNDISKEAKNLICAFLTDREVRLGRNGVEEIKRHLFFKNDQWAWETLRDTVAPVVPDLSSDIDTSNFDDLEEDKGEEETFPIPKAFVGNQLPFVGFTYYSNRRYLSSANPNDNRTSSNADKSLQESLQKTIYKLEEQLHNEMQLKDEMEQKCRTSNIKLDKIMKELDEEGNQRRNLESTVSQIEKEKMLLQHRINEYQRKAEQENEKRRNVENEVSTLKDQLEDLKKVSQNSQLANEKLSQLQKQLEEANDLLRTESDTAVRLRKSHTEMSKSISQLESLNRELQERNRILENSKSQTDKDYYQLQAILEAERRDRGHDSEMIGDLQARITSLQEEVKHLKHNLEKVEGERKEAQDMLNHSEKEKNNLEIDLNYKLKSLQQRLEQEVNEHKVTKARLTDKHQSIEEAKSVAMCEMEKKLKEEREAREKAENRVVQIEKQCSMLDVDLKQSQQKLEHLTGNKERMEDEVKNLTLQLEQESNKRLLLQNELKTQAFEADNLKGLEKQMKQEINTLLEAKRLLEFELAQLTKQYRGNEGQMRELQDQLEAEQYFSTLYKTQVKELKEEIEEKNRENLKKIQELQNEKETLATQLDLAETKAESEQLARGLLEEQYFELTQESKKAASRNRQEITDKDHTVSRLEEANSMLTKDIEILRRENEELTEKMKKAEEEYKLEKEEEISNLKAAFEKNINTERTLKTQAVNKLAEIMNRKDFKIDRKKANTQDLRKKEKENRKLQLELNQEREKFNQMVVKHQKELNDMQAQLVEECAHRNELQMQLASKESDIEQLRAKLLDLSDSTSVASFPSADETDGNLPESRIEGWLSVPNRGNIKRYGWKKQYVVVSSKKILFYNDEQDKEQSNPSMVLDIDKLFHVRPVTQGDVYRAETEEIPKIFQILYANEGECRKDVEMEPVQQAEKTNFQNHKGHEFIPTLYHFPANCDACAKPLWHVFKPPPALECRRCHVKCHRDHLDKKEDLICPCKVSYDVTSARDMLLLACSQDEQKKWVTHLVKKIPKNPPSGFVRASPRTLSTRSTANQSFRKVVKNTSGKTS
T8 sequence (P49137 whole entry, species assumed): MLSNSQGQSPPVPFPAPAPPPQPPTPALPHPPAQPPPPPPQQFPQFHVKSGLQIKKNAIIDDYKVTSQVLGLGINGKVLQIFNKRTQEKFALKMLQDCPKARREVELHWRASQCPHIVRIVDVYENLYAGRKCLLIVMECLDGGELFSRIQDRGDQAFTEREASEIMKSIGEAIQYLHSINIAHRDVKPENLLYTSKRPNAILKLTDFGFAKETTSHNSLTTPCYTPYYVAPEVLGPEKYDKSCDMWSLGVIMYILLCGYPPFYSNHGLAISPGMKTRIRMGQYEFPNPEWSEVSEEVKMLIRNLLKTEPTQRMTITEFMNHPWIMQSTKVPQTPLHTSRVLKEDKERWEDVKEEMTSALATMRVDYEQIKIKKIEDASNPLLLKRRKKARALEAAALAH

`CC(C)(C)c1ccc(S(=O)(=O)NCc2ccc(C(=O)Nc3cccnc3)cc2)cc1` [Example 38, 4-((4-tert-Butylphenylsulfonamido)methyl)-N-(pyridin-3-yl)benzamide] registered a CDK6/cyclinD3 kinase activity at CDK6/cyclinD3 of 105. At Fyn, the Fyn kinase activity is 91%. At Pim-2, this compound had a Pim-2 kinase activity of 112. Further, the PKA kinase activity at PKA was found to be 96. The MEK1 kinase activity on MEK1 was 99. This compound also registered a CK1γ1 kinase activity at CK1γ1 of 85%. The cSRC kinase activity on cSRC stood at 104%. Further, on MAPKAP-K2, the MAPKAP-K2 kinase activity amounted to 87. The FGFR1 kinase activity on FGFR1 was determined as 107%. For the same compound, at Aurora-A, the Aurora-A kinase activity turned out to be 108%. Also, in the assay on RCC4 and RCC4/VHL cells, the “oxygen consumption, treated vs untreated cells” value is “no difference in oxygen consumption”. Besides, the Met kinase activity at Met is 105. The compound further registered an ROCK-I kinase activity at ROCK-I of 74%. The compound further registered a Syk kinase activity on Syk of 94. The compound also came in with a CDK1/cyclinB kinase activity at CDK1/cyclinB of 96. On CSK, the CSK kinase activity amounted to 99. The same compound registered a PI3K kinase activity in the assay with PI3K of 97. In addition, the ASK1 kinase activity on ASK1 is 129%. The Rsk1 kinase activity on Rsk1 was determined as 120%. The compound also had a DAPK1 kinase activity at DAPK1 of 92%. On IRAK1, the IRAK1 kinase activity came out at 105%.

Source of the values: patent publication US20120225862A1, “HETEROARYL BENZAMIDES, COMPOSITIONS AND METHODS OF USE” (AUCKLAND UNIVSERVICES LIMITED, priority 2009, published 2012).
